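Method: 48-hour compound exposure of cells in 96-well plates, five concentrations, linear interpolation of endpoints. At the GI50, growth is halved.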 Calls of active or inactive are those of the source. Cut-off read from the data, not from the text of the source: active = GI50 up to about 1.1 µM and inactive = higher.
Columns and labels:
Experiment in all cases: growth of human tumour cells (NCI), 48 h
HL-60 = tested on: HL-60
NCI-H460 = tested on: NCI-H460
OVCAR-8 = tested on: OVCAR-8
CAKI-1 = tested on: CAKI-1
ACHN = tested on: ACHN
K562 = tested on: K562
SW-620 = tested on: SW-620
KM12 = tested on: KM12
CCRF-CEM = tested on: CCRF-CEM
SR = tested on: SR
IGROV-1 = tested on: IGROV-1
SF-268 = tested on: SF-268
RXF 393 = tested on: RXF 393
MDA-MB-231 = tested on: MDA-MB-231
M14 = tested on: M14
HOP-92 = tested on: HOP-92
HCT-15 = tested on: HCT-15
RPMI-8226 = tested on: RPMI-8226
NCI/ADR-RES = tested on: NCI/ADR-RES

Structure (SMILES)	GI50 (HL-60)	GI50 (NCI-H460)	GI50 (OVCAR-8)	GI50 (CAKI-1)	GI50 (ACHN)	GI50 (K562)	GI50 (SW-620)	GI50 (KM12)	GI50 (CCRF-CEM)	GI50 (SR)	GI50 (IGROV-1)	GI50 (SF-268)	GI50 (RXF 393)	GI50 (MDA-MB-231)	GI50 (M14)	GI50 (HOP-92)	GI50 (HCT-15)	GI50 (RPMI-8226)	GI50 (NCI/ADR-RES)
C[C@]12CC[C@H](O)CC1=CC[C@@H]1C2CC[C@]2(C)c3nn(-c4ccc(F)cc4)nc3CC12 (some centres not stated)	17.5 µM (inactive)	23.4 µM (inactive)	85.7 µM (inactive)	> 100 µM (inactive)	33.1 µM (inactive)	4.51 µM (inactive)	> 100 µM (inactive)	24.3 µM (inactive)	58.1 µM (inactive)	> 100 µM (inactive)	> 100 µM (inactive)	73.8 µM (inactive)	61.5 µM (inactive)	> 100 µM (inactive)	32.6 µM (inactive)	> 100 µM (inactive)	–	–	–
CC(=O)/C=C/C=C(\C)CC/C=C(\C)CC(C)C	13 µM (inactive)	29.9 µM (inactive)	23.7 µM (inactive)	40.8 µM (inactive)	29.9 µM (inactive)	21.6 µM (inactive)	17.1 µM (inactive)	27.7 µM (inactive)	13.5 µM (inactive)	16.1 µM (inactive)	28.9 µM (inactive)	39.7 µM (inactive)	16.2 µM (inactive)	40.9 µM (inactive)	52.2 µM (inactive)	0.558 µM (active)	16 µM	17.1 µM (inactive)	–
O=C(c1ccccc1)N(C(=O)c1ccccc1)c1nc(SCc2ccccc2)ns1	21.8 µM (inactive)	21.1 µM (inactive)	36.6 µM (inactive)	38.2 µM (inactive)	41.6 µM (inactive)	29.1 µM (inactive)	37.2 µM (inactive)	34 µM (inactive)	25.6 µM (inactive)	22.2 µM (inactive)	36.9 µM (inactive)	30.8 µM (inactive)	31.7 µM (inactive)	–	34.4 µM (inactive)	26.7 µM (inactive)	23.9 µM	19.6 µM (inactive)	28.3 µM (inactive)
CC(N/N=C(\S)N1CCCC1)c1cccnn1 (configuration not stated)	0.361 µM (active)	0.306 µM (active)	0.342 µM (active)	0.713 µM (active)	0.391 µM (active)	0.632 µM (active)	0.579 µM (active)	0.719 µM (active)	0.274 µM (active)	0.378 µM (active)	0.43 µM (active)	0.259 µM (active)	0.315 µM (active)	1.03 µM (active)	0.378 µM (active)	–	0.443 µM	0.434 µM (active)	0.48 µM (active)
Cc1cc(=O)[nH]c2cc(NC(=O)C(CCCNC(=N)N)NC(=O)OCc3ccccc3)ccc12 (configuration not stated)	> 100 µM (inactive)	> 100 µM (inactive)	> 100 µM (inactive)	> 100 µM (inactive)	> 100 µM (inactive)	> 100 µM (inactive)	> 100 µM (inactive)	> 100 µM (inactive)	> 100 µM (inactive)	> 100 µM (inactive)	> 100 µM (inactive)	> 100 µM (inactive)	–	> 100 µM (inactive)	> 100 µM (inactive)	78.5 µM (inactive)	> 100 µM	–	> 100 µM (inactive)
O=c1/c(=C/c2ccccn2)sc2nc3cc4c(cc3n12)OCCO4	–	> 100 µM (inactive)	> 100 µM (inactive)	> 100 µM (inactive)	> 100 µM (inactive)	> 100 µM (inactive)	> 100 µM (inactive)	> 100 µM (inactive)	> 100 µM (inactive)	–	> 100 µM (inactive)	> 100 µM (inactive)	> 100 µM (inactive)	> 100 µM (inactive)	> 100 µM (inactive)	> 100 µM (inactive)	> 100 µM	> 100 µM (inactive)	> 100 µM (inactive)
Cc1cccc2c1C/C(=C\c1cccc(C)c1C(=O)O)C2=O	> 100 µM (inactive)	> 100 µM (inactive)	> 100 µM (inactive)	> 100 µM (inactive)	> 100 µM (inactive)	> 100 µM (inactive)	> 100 µM (inactive)	> 100 µM (inactive)	84.9 µM (inactive)	54.7 µM (inactive)	> 100 µM (inactive)	> 100 µM (inactive)	> 100 µM (inactive)	–	> 100 µM (inactive)	> 100 µM (inactive)	> 100 µM	46.6 µM (inactive)	> 100 µM (inactive)
O=C1/C(=C/c2cccs2)NC(=S)N1CN1CCCCC1	–	–	41 µM (inactive)	–	42.6 µM (inactive)	52.1 µM (inactive)	30.3 µM (inactive)	> 100 µM (inactive)	60.5 µM (inactive)	88.9 µM (inactive)	67.1 µM (inactive)	> 100 µM (inactive)	–	> 100 µM (inactive)	61.7 µM (inactive)	77.1 µM (inactive)	29.9 µM	28.9 µM (inactive)	> 100 µM (inactive)

Reference: ChEMBL document CHEMBL1201862, “PubChem BioAssay data set” (2004)
